According to article PMC3790851, “Improved Mass Spectrometry Assay For Plasma Hepcidin: Detection and Characterization of a Novel Hepcidin Isoform” (PLoS ONE, 2013):

Tests used:
[1] = Stability of hepcidin in plasma/serum at room temperature (WCX-TOF MS); assay type: in vitro ADME, human
Procedure: Spectra were analyzed by using Bruker Daltonics FlexAnalysis software.
To assess the stability of hepcidin in serum and plasma matrices, we kept samples from intensive care patients (n = 20) and healthy controls (n = 5) at room temperature for 0–7 days followed by WCX-TOF MS analysis using the hepcidin-25^+40 internal standard. […] For the samples at day 1 and day 7, the mean decrease in hepcidin-25 for the 5 controls and 20 intensive care patients was 90% (CV, 8% ) and 55% (CV, 23%), respectively (Table 3).

in vitro = conditions: human
Procedure: Samples were used for measurement of hepcidin between 4–7 hrs after blood drawing and/or pooled and/or stored in aliquots at various temperatures for prolonged periods of time.
Fresh samples were measured within 2–4 hrs hours after blood drawing and stored in aliquots at various temperatures for prolonged incubation.
Mass-to-charge (m/z) spectra were generated by using MALDI-TOF MS (Microflex LT, Bruker Daltonics). Spectra were analyzed by using Bruker Daltonics FlexAnalysis software. […] Total hepcidin concentration was defined as the sum of hepcidin-25, -24, -22, and -20 concentrations.
Using the novel heavy hepcidin-25 internal standard, we assessed changes in hepcidin-25 and the smaller isoforms in various samples containing various anticoagulants ex vivo at room temperature (RT), 4°C, −20°C and −80°C. More specifically, changes in hepcidin concentrations relative to those found in freshly collected samples were determined i) at storage at RT and 4°C on day 0 (fresh samples), 1 (14–22 hrs), 2, 3, and 7 days after sampling/storage, ii) at −20°C after 1 week, and after 1, 4 and 6 months of storage and iii) at −80°C at after 6 months of storage.

[2] = serum from 12 healthy controls; stable for; ref 35 Itkonen et al.; cited from earlier work
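Wherever Hepcidin level after one week at -20°C, EDTA plasma is given: hepcidin in stored plasma or serum quantified by MALDI-TOF MS against a heavy hepcidin-25 internal standard, expressed relative to concentrations in freshly collected samples.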
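Wherever no significant change at -20°C for is given: hepcidin in stored plasma or serum quantified by MALDI-TOF MS against a heavy hepcidin-25 internal standard, expressed relative to concentrations in freshly collected samples.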
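Wherever stable at -20°C for is given: hepcidin in stored plasma or serum quantified by MALDI-TOF MS against a heavy hepcidin-25 internal standard, expressed relative to concentrations in freshly collected samples.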

For CC[C@H](C)[C@@H]1NC(=O)[C@@H](NC(=O)[C@@H](NC(=O)[C@@H]2CCCN2C(=O)[C@H](Cc2ccccc2)NC(=O)[C@H](Cc2c[nH]cn2)NC(=O)[C@@H](NC(=O)[C@@H](N)CC(=O)O)[C@@H](C)O)[C@@H](C)CC)CSSC[C@@H](C(=O)N[C@@H](CCCCN)C(=O)N[C@H](C(=O)O)[C@@H](C)O)NC(=O)[C@@H]2CSSC[C@H](NC(=O)[C@H](Cc3ccccc3)NC1=O)C(=O)N[C@H]1CSSC[C@H](NC(=O)[C@H](CCCCN)NC(=O)[C@H](CO)NC(=O)[C@H](CCCNC(=N)N)NC(=O)[C@H](Cc3c[nH]cn3)NC(=O)[C@@H]3CSSC[C@H](NC(=O)CNC1=O)C(=O)N3)C(=O)NCC(=O)N[C@@H](CCSC)C(=O)N2 [Hepcidin-25], the “Hepcidin level after one week at RT” value ([1]; average, % of fresh sample, 7 days, human heparin plasma, 19 IC patients + 5 controls, results <1.0 nM removed, WCX-TOF MS, hepcidin-25^+40 internal standard, CV (Hep-25/-24/-22/-20/Total) 23/29/29/38/17, n = 24/15/13/18/11) was 55%, the “Hepcidin level after one day at RT” value ([1]; average, % of fresh sample, human heparin plasma, 19 IC patients + 5 controls, results <1.0 nM removed, WCX-TOF MS, hepcidin-25^+40 internal standard, CV (Hep-25/-24/-22/-20/Total) 8/21/14/25/5, n = 24/15/13/18/11) was 90% and the “Hepcidin level after one week at RT, without protease inhibitors” value ([1]; average, % of fresh, 7 days, heparin plasma, 10 IC patients, results <1 nM excluded, CV (Hep-25/-24/-22/-20) 30/31/23/41, n = 10/8/7/8) was 48%. The “Hepcidin level after one day at RT, without protease inhibitors” value ([1]; average, % of fresh, heparin plasma, 10 IC patients, results <1 nM excluded, CV (Hep-25/-24/-22/-20) 13/20/11/11, n = 10/8/7/8) was 89%, the “mean hepcidin-25 level remaining at day 1 at RT, % of fresh” value ([1]; heparin plasma, 5 controls and 20 intensive care patients, CV 8%) was 90% and the “effect of protease inhibitors on hepcidin-25 decrease” value ([1]; heparin samples of IC patients (n = 10), RT) was “prevented hepcidin-25 processing to a certain extend but did not block its decrease completely”. The remaining at 168 h ([1]; human, average, % of fresh, 7 days, heparin plasma, 10 IC patients, Complete Mini (Roche), CV (Hep-25/-24/-22/-20) 25/35/9/25, n = 10/8/7/8, read-out: Hepcidin level after one week at RT, with protease inhibitors) was 69%, the remaining at 1 day ([1]; human, average, % of fresh, heparin plasma, 10 IC patients, Complete Mini (Roche), 1 tablet in 200 µL PBS, 20 µL per 1 ml plasma, CV (Hep-25/-24/-22/-20) 8/30/4/14, n = 10/8/7/8, read-out: Hepcidin level after one day at RT, with protease inhibitors) was 91% and the “stable at -20°C for” value (EDTA and heparin plasma of 10 intensive care patients and 5 controls) was “at least 4 weeks”. For the same compound, the “Hepcidin level after one week at -20°C, EDTA plasma” value (average, % of fresh, 10 IC patients and 5 controls, CV (Hep-25/-24/-22/-20) 11/12/11/28, n = 15/8/6/9, hepcidin-20 unreliable (additional peak)) was 96%, the “hepcidin-25 relative to fresh samples upon freezing” value (heparin samples at 7 days, -20°C, IC + control n = 15, CV 8%) was 95% and the “no significant change at -20°C for” value (serum, heparin, EDTA and citrate plasma of healthy controls (n = 5)) was “at least 6 months”. The remaining at 1 mnt (in vitro; EDTA plasma) was 94%, the remaining at 4 mnts (in vitro; EDTA plasma) was 92% and the remaining at 6 months (in vitro; EDTA plasma) was 88%. It also gave a remaining at 168 h (in vitro; EDTA plasma) of 89%, a remaining at 672 h (in vitro; EDTA plasma) of 99% and a remaining at 1 mnt (in vitro; citrate plasma) of 95%. It also gave a remaining at 4 mnts (in vitro; citrate plasma) of 102%, a remaining at 6 mnts (in vitro; citrate plasma) of 97% and a remaining at 168 h (in vitro; citrate plasma) of 97%. For the same compound, the remaining at 1 mnt (in vitro; heparin plasma) was 92%, the remaining at 4 mnts (in vitro; heparin plasma) was 100% and the remaining at 6 mnts (in vitro; heparin plasma) was 83%. It also gave a remaining at 168 h (in vitro; heparin plasma) of 96%, a remaining at 672 h (in vitro; heparin plasma) of 97% and a remaining at 1 mnt (in vitro; serum) of 96%. The remaining at 4 mnts (in vitro; serum) was 98%, the remaining at 6 mnts (in vitro; serum) was 99% and the remaining at 168 h (in vitro; serum) was 97%. For the same compound, the “stability at room temperature” value [2] was 1 days.
